Test results: patent US10413532B2, “Pharmaceutical compositions containing a PDE4 inhibitor and a PI3 delta or dual PI3 delta-gamma kinase inhibitor” (Rhizen Pharmaceuticals SA, priority 2012, dated 2019)
Where two headings read alike, the source gives them in different places.

What was measured:
neutrophil infiltration = assay: Lipopolysaccharide induced pulmonary neutrophilia in female Wistar rats; format: in vivo
Method: After the quarantine period, fasted animals were randomized and divided into groups depending on their body weights. Test compound was prepared as a suspension in a vehicle consisting of 0.5% methylcellulose in which Tween 80 was used as a suspending agent. Compounds or vehicle were administered by oral gavage in a volume of 10 mL/kg. Animals were anaesthetized with ketamine and LPS solution was administered intratracheally 30 minutes after compound administration at a dose of 1 mg/kg. Six hours after LPS instillation, animals were exsanguinated under anaesthesia, and the trachea was cannulated, and lungs were lavaged with 5-ml aliquots of heparinised PBS (1 unit/ml) four times through the tracheal cannula (total volume 20 ml). Bronchioalveolar (BAL) fluid was stored at 2-8° C. until assayed for total cell and differential leukocyte count. BAL fluid was centrifuged (500×g for 10 min) and the resulting cell pellet was resuspended in 0.5 ml of heparinised saline. The total numbers of white blood cells were determined in BAL fluid or blood using a cell counter and were adjusted to 1×10^6 cell/ml. Differential cell count was calculated manually. One hundred microliters of the cell suspension was centrifuged using cytospin 3 to prepare a cell smear. The cell smear was stained with a blood staining solution for differentiation and slides were microscopically observed to identify eosinophils according to their morphological characteristics. The number of each cell type among 300 white blood cells in the cell smear was determined and expressed as a percentage of total cells. The number of eosinophil in BALF was calculated.
The procedure for LPS induced pulmonary neutrophilia in female Wistar rats as described in Example 1 was performed with compound A1 and roflumilast.

PI3K Delta = PI3K Delta (Homo sapiens, UniProt O00329); assay: PI3K Delta enzyme inhibition; format: biochemical
[1] = test system: macrophage and neutrophil infiltration; assay: Acute cigarette smoke induced cell infiltration in male Balb/c mice; format: in vivo; conditions: acute CS; for ED50: oral
Method: Animals were acclimatized for seven days prior to the start of the experiment. Animals were randomly distributed to various groups based on their body weights. On day 1, mice were administered by test compound or vehicle by the oral route and after 30 mins test compound administration animals were placed in a whole body exposure box. The mice were exposed to the mainstream smoke of 6 cigarettes from day 1 to day 4. Exposure to the smoke of each cigarette lasted for 10 min (cigarettes were completely burned in the first two minutes and followed by an air flow with animal ventilator) followed by exposure for the next 20 min with fresh room air. After every second cigarette an additional break of 20 min with exposure to fresh room air was conducted. Control animals were exposed to the room air chamber. From day 1 to day 4 animals were administered test compound by the oral route. On day 5, 24 hours after the last cigarette smoke (CS) exposure. animals were exsanguinated under anaesthesia, and the trachea was cannulated and the lungs were lavaged with 0.5 ml aliquots of heparinised PBS (1 unit/ml) four times through a tracheal cannula (total volume 2 ml). Bronchioalveolar (BAL) collected was stored at 2-8° C. until assayed for total cell and differential leukocyte count. BAL fluid was centrifuged (500×g for 10 min) and the resulting cell pellet was resuspended in 0.5 ml of heparinised saline. The total number of white blood cells was determined in BAL fluid and blood using a blood cell counter and adjusted to 1×10^6 cell/ml. Differential cell count was calculated manually. Forty microliters of the cell suspension was centrifuged using cytospin 3 to prepare a cell smear. The cell smear was stained with a blood staining solution for differentiation and microscopically observed by identifying each cell according to its morphological characteristics. The number of each cell type among 300 white blood cells in the cell smear were determined and expressed as a percentage, and the number of neutrophils and macrophages in each BAL fluid were calculated.
The procedure for acute cigarette smoke induced cell infiltration in male Balb/c mice described in Example 1 was performed with Compound A1 and roflumilast

TNFα [2] = assay: LPS induced TNFα in human whole blood (HWB); format: cell-based; conditions: 100 nM alone
Method: Freshly collected HWB was diluted with media and incubated with the desired concentration of inhibitor for 15 min. LPS (1 μg/ml) was added and then incubated for 24 hours. The supernatant was collected and TNFα estimated using an eBioscience TNFα ELISA kit.
Freshly collected HWB was diluted with media and incubated with the desired concentration of inhibitor for 15 minutes. LPS (1 μg/ml) was added and then incubated for 24 hours. The supernatant was collected and TNFα estimated using an eBioscience TNFα ELISA kit.

TNFα [3] = assay: LPS induced TNFα in MH-S (mouse alveolar macrophage) cells; format: cell-based
Method: (§1) MH-S represents a mouse alveolar macrophage cell line that secretes copious amounts of TNFα upon induction by LPS. Cells were plated at 150,000 cells per well. 10 nM of Compound A1 (final concentration) was added 15 minutes prior to the addition of roflumilast. LPS (1 μg/ml) was added and then incubated for 4 hours. The supernatant was collected after 20 hours and TNFα was estimated using an ELISA kit.

PI3K Gamma = PI3K Gamma (Homo sapiens, UniProt P48736); assay: PI3K Gamma enzyme inhibition; format: biochemical
TNFα [4] = assay: LPS induced TNFα in THP-1 (human monocyte) cells; format: cell-based; conditions: compound alone; THP-1 cells, LPS 1 μg/ml
Method: as §1, with “THP-1” for “MH-S”, “monocytic” for “mouse alveolar macrophage”, “that has elevated endogenous pAKT levels and” for “that”

IFNγ [5] = assay: Con A+PMA induced IFNγ in human whole blood (HWB); format: cell-based; conditions: 10 nM alone
Method: (§2) Freshly collected HWB was diluted with media and incubated with the desired concentration of inhibitor for 15 minutes. Cytokine release was induced with the addition of Concanavalin A (25 μg/ml)+Phorbol Myristate Acetate (50 ng/ml). The supernatant was collected after 20 hours and IFNγ was estimated using an ELISA kit.

IFNγ [6] = assay: Con A+PMA induced IFNγ in PBMC; format: cell-based; conditions: 10 nM alone
Method: as §2, with “PBMC from whole blood were isolated by density gradient using Histopaque” for “Freshly collected HWB was diluted with media”, “Supernatant” for “The supernatant”

PI3K Gamma, sequence (P48736 whole entry, species assumed): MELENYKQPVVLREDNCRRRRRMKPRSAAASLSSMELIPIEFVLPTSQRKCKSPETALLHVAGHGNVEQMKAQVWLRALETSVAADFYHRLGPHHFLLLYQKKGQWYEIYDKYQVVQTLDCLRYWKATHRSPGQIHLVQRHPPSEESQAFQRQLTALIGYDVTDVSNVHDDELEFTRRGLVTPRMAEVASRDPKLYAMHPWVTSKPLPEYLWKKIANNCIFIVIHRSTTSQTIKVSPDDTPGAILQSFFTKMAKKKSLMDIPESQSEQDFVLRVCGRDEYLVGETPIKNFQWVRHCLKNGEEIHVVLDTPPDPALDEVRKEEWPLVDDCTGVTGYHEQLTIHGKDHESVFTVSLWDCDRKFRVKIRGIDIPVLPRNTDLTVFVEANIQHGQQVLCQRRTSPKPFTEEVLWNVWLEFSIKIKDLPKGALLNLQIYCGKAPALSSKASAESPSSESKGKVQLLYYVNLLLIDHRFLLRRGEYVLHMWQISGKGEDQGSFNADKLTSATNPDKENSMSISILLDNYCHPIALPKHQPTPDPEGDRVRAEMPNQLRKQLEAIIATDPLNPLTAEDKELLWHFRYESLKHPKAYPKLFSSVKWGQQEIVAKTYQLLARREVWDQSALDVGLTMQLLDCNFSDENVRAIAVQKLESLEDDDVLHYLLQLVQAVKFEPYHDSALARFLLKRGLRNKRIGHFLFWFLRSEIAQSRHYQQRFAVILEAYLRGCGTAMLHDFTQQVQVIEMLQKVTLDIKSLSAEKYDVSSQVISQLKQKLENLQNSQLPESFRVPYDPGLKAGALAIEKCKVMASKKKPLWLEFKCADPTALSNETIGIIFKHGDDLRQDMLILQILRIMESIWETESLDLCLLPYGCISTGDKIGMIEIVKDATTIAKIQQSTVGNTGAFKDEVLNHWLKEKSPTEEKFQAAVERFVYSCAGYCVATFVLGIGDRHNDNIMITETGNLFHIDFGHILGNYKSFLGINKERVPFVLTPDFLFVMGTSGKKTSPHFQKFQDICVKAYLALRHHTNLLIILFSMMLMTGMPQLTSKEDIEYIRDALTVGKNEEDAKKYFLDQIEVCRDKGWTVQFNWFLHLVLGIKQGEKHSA
PI3K Delta, sequence (O00329 whole entry, species assumed): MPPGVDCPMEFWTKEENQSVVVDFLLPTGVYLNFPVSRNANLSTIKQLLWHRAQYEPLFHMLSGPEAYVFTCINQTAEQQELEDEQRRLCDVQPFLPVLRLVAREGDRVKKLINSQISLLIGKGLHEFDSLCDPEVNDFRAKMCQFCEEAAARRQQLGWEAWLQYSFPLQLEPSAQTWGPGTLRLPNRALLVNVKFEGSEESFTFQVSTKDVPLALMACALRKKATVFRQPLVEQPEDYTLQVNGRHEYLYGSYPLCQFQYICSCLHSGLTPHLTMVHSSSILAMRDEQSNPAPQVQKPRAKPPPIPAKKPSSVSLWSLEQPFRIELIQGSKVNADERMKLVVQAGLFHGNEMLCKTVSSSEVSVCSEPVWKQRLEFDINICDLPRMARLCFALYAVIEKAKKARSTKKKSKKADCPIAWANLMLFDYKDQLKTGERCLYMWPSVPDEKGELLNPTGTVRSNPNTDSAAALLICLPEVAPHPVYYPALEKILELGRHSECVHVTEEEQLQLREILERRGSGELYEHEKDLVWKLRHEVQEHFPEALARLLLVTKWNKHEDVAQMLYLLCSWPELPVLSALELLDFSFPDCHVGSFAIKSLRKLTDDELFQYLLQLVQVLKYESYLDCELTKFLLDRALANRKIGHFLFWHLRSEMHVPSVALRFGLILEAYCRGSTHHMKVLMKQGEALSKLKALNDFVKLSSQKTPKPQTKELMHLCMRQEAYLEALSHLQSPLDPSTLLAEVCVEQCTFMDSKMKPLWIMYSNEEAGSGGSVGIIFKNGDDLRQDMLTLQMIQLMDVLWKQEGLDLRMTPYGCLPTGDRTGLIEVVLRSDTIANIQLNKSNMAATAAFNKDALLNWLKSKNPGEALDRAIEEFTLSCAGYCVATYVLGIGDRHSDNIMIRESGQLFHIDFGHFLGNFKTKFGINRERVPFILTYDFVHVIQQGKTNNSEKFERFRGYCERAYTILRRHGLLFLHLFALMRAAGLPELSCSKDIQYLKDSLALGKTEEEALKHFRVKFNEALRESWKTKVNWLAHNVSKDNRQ
PI3K Delta, sequence (P27986 whole entry partner, species assumed): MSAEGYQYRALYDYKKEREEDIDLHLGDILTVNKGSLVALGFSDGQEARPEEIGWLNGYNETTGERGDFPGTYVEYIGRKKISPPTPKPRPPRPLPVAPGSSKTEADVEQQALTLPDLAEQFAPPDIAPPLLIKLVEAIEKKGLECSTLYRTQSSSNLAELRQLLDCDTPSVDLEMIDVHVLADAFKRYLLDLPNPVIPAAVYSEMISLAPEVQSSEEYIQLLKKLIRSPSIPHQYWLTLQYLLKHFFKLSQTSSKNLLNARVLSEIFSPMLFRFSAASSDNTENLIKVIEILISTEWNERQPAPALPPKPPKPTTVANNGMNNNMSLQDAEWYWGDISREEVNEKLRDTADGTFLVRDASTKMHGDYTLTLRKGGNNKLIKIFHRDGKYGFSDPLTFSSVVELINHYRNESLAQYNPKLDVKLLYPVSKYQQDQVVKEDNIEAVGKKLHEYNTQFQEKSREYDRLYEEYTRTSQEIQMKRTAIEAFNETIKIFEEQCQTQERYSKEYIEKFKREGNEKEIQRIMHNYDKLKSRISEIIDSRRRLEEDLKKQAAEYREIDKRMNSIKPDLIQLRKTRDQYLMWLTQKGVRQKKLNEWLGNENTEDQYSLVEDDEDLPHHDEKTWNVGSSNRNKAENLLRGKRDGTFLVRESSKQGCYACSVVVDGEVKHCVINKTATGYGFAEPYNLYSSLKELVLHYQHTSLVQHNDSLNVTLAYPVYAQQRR

CC(C)Oc1ccc(-c2nn(C(C)c3oc4cccc(F)c4c(=O)c3-c3cccc(F)c3)c3ncnc(N)c23)cc1F (single isomer, unassigned; (+)) [Compound A1, (+)-2-(1-(4-amino-3-(3-fluoro-4-isopropoxyphenyl)-1H-pyrazolo[3,4-d]pyrimidin-1-yl)ethyl)-5-fluoro-3-(3-fluorophenyl)-4H-chromen-4-one]
percent inhibition of neutrophil infiltration (neutrophil infiltration; 0.1 mg/kg oral, rat BAL fluid 6 h after LPS): 17.83%
percent inhibition of neutrophil infiltration (neutrophil infiltration; 1 mg/kg oral, dose-response study, rat): 51.76%
percent inhibition of neutrophil infiltration (neutrophil infiltration; 10 mg/kg oral, rat): 70.21%
ED50 (neutrophil infiltration; Neutrophil, oral, rat LPS pulmonary neutrophilia, read-out: 50% inhibition (ED50) dose, neutrophil infiltration): 1.3 mg/kg
inhibition of neutrophil infiltration (neutrophil infiltration; combination study, alone at 1.3 mg/kg, rat): 43.02%
IC50 (PI3K Delta): < 40 nM
percent inhibition of neutrophil infiltration ([1]; 0.1 mg/kg oral, mouse): 14.76%
percent inhibition of macrophage infiltration ([1]; 0.1 mg/kg oral, mouse BAL): 20.60%
percent inhibition of neutrophil infiltration ([1]; 0.3 mg/kg oral, mouse): 51.31%
percent inhibition of macrophage infiltration ([1]; 0.3 mg/kg oral, dose-response study, mouse): 75.19%
percent inhibition of macrophage infiltration ([1]; 1 mg/kg oral, mouse): 93.11%
percent inhibition of neutrophil infiltration ([1]; 1 mg/kg oral, mouse): 112.83%
ED50 ([1]; Macrophage, mouse, read-out: 50% inhibition (ED50) dose, macrophage infiltration): 0.2 mg/kg
ED50 ([1]; Neutrophil, mouse, read-out: dose of 50% inhibition (ED50) of neutrophil infiltration): 0.26 mg/kg
inhibition of neutrophil infiltration ([1]; combination study, alone at 0.25 mg/kg, mouse): 36.69%
inhibition of macrophage infiltration ([1]; combination study, alone at 0.3 mg/kg, mouse): 31.33%
effect on TNFα secretion (TNFα [2]): did not affect TNFα secretion
decrease in TNFα secretion (TNFα [3]; 15 nM alone): ~10%
inhibition of TNFα (TNFα [3]; compound alone, LPS 1 μg/ml): dose-dependently inhibited TNFα
IC50 (PI3K Gamma): < 40 nM
inhibition of TNFα (TNFα [4]): dose-dependently inhibited TNFα
effect on IFNγ secretion (IFNγ [5]): did not affect IFNγ secretion
effect on IFNγ secretion (IFNγ [6]): did not affect IFNγ secretion
